Reference: patent US11998585B2, “Methods and compositions for increasing the dose of a chemotherapeutic agent” (Stealth BioTherapeutics Inc., priority 2012, dated 2024)
Entries after “also recorded” stand apart in the source; their conditions may differ.

Test system: vincristine-induced hyperalgesia in rats
Test: Vincristine-induced hyperalgesia in rats, electronic Von Frey test (paw-withdrawal threshold)
Type: in vivo, Sprague Dawley rats
Description: Female Sprague Dawley rats were divided randomly into 5 groups (n=10), according to Table 7. Groups 2-4 were administered Vincristine 0.10 mg/kg injected intravenously (i.v.) via tail vein followed by a bolus injection of 0.1 ml PBS vehicle, once daily for 14 days. Group 1 was administered 1 ml/kg PBS vehicle alone according to the same schedule. D-Arg-2′6′-dimethyltyrosine-Lys-Phe-NH2 10 mg/kg was administered subcutaneously (s.c.) 15 minutes prior to vincristine administration for the full 14-day period (Group 3), or for a period of two weeks beginning at day 15 (Group 4). Group 5 was administered Vincristine 0.10 mg/kg injected i.v. via tail vein, followed by a bolus injection of 0.1 ml PBS vehicle once daily for 28 days, and D-Arg-2′6′-dimethyltyrosine-Lys-Phe-NH2 10 mg/kg administered s.c. for a period of 14 days beginning at day 15.
Mechanical nociceptive threshold of paw-withdrawal was measured every two days using an electronic Von Frey test. Results are shown in FIG. 1 and FIG. 2 as means±SEM. One-way ANOVA with post-hoc test or t-test were used to assess the statistical significance, with p<0.05 is considered statistically significant. In FIG. 1, data for subjects receiving vincristine in the absence of simultaneous D-Arg-2′6′-dimethyltyrosine-Lys-Phe-NH2 (Groups 2, 4, 5) is shown collectively as “Group A.”

Compound | pain threshold after withdrawal of vincristine, no peptide (Group 2: vincristine 0.10 mg/kg i.v. 14 days + PBS vehicle, followed after day 14, FIG. 2) | pain threshold (mechanical nociceptive threshold of paw-withdrawal) under vincristine (vincristine 0.10 mg/kg i.v. daily for 14 days without peptide, vs vehicle-only control (Group 1)) | treatment of vincristine-induced hyperalgesia (FIG. 2, rats, Groups 4 and 5) | pain threshold (mechanical nociceptive threshold of paw-withdrawal), prevention (Group 3: peptide 10 mg/kg s.c. daily 15 min prior to vincristine 0.10 mg/kg i.v. for 14 days, vs vehicle-only control (Group 1), FIG. 1) | pain threshold (mechanical nociceptive threshold of paw-withdrawal), treatment after withdrawal of vincristine (Group 4: vincristine 0.10 mg/kg i.v. 14 days, then peptide 10 mg/kg s.c. daily for two weeks beginning at day 15, FIG. 2) | pain threshold (mechanical nociceptive threshold of paw-withdrawal), treatment while vincristine continues (Group 5: vincristine 0.10 mg/kg i.v. 28 days, peptide 10 mg/kg s.c. daily for 14 days beginning at day 15, FIG. 2)
CC[C@]1(O)C[C@H]2CN(CCc3c([nH]c4ccccc34)[C@@](C(=O)OC)(c3cc4c(cc3OC)N(C=O)[C@H]3[C@@](O)(C(=O)OC)[C@H](OC(C)=O)[C@]5(CC)C=CCN6CC[C@]43[C@@H]65)C2)C1 [vincristine, reference compound] | continued to show a decline in pain thereshold, reaching a low point at day 21, and showed a moderate improvement beginning at day 22 | a decrease in pain threshold response compared to a vehicle-only control |  |  |  | 
D-Arg-2′6′-dimethyltyrosine-Lys-Phe-NH2 |  |  | effective in the treatment of vincristine-induced hyperalgesia in rats | not significantly different from the vehicle-only control; also recorded: effective in the prevention of vincristine-induced hyperalgesia in rats | improved pain threshold as soon as day 15, with continued improvement through day 25 | an arrest of the downward trend in pain threshold evident in the initial 14 day period, followed by an improvement in pain threshold beginning at day 16
